In brackets after ≈: the same amount, converted by molar mass.

One may read the LC50 as the concentration that kills 50% of the test population.

In one data set the test system is A498. As to the kind of experiment: Cytotoxicity against human A498 cells after 7 days by MTT assay. It is filed as functional. The settings on record: A498, 168 h, read-out: ED50 (the source's name). (In general: Formazan colour is commonly taken as a measure of viable cells.)
Another data set has as its system HT-29. As to the kind of experiment: Cytotoxicity against human HT29 cells after 7 days by MTT assay. The settings on record: HT-29, 168 h, read-out: ED50 (the source's name). It is filed as functional.
The test system of a further data set is A549. As to the kind of experiment: Cytotoxicity against human A549 cells after 7 days by MTT assay. The note with it: for EC50: Homo sapiens, A549, 168 h, read-out: ED50 (the source's name). The class given is functional.
The next data set relates to MIA PaCa-2. As to the kind of experiment: Cytotoxicity against human MIAPaCa2 cells after 7 days by MTT assay. It is filed as functional. The note with it: MIA PaCa-2, 168 h, read-out: ED50 (the source's name).
A further data set relates to PC-3. Description: Cytotoxicity against human PC3 cells after 7 days by MTT assay. The class given is functional. The note with it: PC-3, 168 h, read-out: ED50 (the source's name).
The test system of another data set is MCF7. As to the kind of experiment: Cytotoxicity against human MCF7 cells after 7 days by MTT assay. It is filed as functional. The note with it: MCF7, 168 h, read-out: ED50 (the source's name).
For the next data set, the system named is Artemia. As to the kind of experiment: (§1) Toxicity to brine shrimp. It is filed as organism-based. The settings on record: in vivo.
For a further data set, the system named is Aedes aegypti. Description: Insecticidal activity against yellow fever mosquito larvae by microtiter plate assay. The class given is functional.
The nature of data set [1]: as §1. The class given is organism-based. The settings on record: artemia, in vivo.

Take `CCCCCCCCCCCC[C@@H](O)[C@H]1CC[C@H]([C@H](O)CC[C@H](O)[C@@H]2CC[C@@H](CCCCCCCC3=C[C@H](C)OC3=O)O2)O1`: the EC50 with A498 came out at 0.328 mg/L (≈ 0.527 µM); in the data set with HT-29, 0.143 mg/L (≈ 0.23 µM); in the data set on A549 it was 0.131 mg/L (≈ 0.21 µM); in the data set on MIA PaCa-2, 0.393 mg/L (≈ 0.631 µM); with PC-3, 0.15 mg/L (≈ 0.241 µM); in the data set with MCF7 it was 1 mg/L (≈ 1.61 µM). Moreover, the values for the LC50 in the data set with Artemia and with Aedes aegypti were 0.04 ppm and 0.68 mg/L (≈ 1.09 µM), respectively.

As for `CCCCCCCCCCCC[C@@H](O)[C@H]1CC[C@H]([C@H]2CC[C@@H]([C@@H]3CC[C@@H](CCCCCCCC4=C[C@H](C)OC4=O)O3)OCO2)O1`, the EC50 was 0.162 mg/L (≈ 0.255 µM) in the data set on A498; 0.183 mg/L (≈ 0.288 µM) in the data set with HT-29; 0.0382 mg/L (≈ 0.0602 µM) in the data set with A549; 0.217 mg/L (≈ 0.342 µM) with MIA PaCa-2; 0.132 mg/L (≈ 0.208 µM) in the data set on PC-3; 0.495 mg/L (≈ 0.78 µM) in the data set with MCF7.

Regarding `CCCCCCCCCCCC[C@@H](O)[C@H]1CC[C@H]([C@H](O)CC[C@H](O)[C@@H]2CC[C@@H](CCCCC[C@@H]3CC(CC(C)=O)C(=O)O3)O2)O1` (some centres undefined), the EC50 in the data set with A498 was 0.212 mg/L (≈ 0.332 µM); in the data set on HT-29, > 1 mg/L; in the data set with A549, 0.214 mg/L (≈ 0.335 µM); with MIA PaCa-2 it was > 1 mg/L; in the data set with PC-3, 0.00108 mg/L (≈ 0.00169 µM); in the data set with MCF7 it was > 1 mg/L. Also, the LC50 in the data set on Artemia was determined as 3.27 ppm; with Aedes aegypti, 0.27 mg/L (≈ 0.423 µM).

In the case of `CCCCCCCCCCCC[C@@H](O)[C@H]1CC[C@H]([C@H]2CC[C@@H]([C@@H]3CC[C@@H](CCCCC[C@@H]4CC(CC(C)=O)C(=O)O4)O3)OCO2)O1` (mixture of isomers), the EC50 is 0.271 mg/L with A498; > 1 mg/L in the data set with HT-29; 0.252 mg/L in the data set with A549; > 1 mg/L in the data set with MIA PaCa-2; 0.00306 mg/L with PC-3; > 1 mg/L with MCF7.

As for `COc1cccc2c1C(=O)c1c(O)c3c(c(O)c1C2=O)C[C@@](O)(C(=O)CO)C[C@@H]3O[C@H]1C[C@H](N)[C@H](O)[C@H](C)O1` [DOXORUBICIN], the EC50 worked out at 0.113 mg/L (≈ 0.208 µM) in the data set on A498; 0.725 mg/L (≈ 1.33 µM) in the data set with HT-29; 0.00393 mg/L (≈ 0.00723 µM) in the data set with A549; 0.00142 mg/L (≈ 0.00261 µM) with MIA PaCa-2; 0.0146 mg/L (≈ 0.0269 µM) with PC-3; 0.369 mg/L (≈ 0.679 µM) in the data set on MCF7.

Take `CCCCCCCCCCCC[C@@H](O)[C@H]1CC[C@H]([C@H](O)CC[C@H](O)[C@@H]2CC[C@@H](CCCCC[C@@H](O)CC3=C[C@H](C)OC3=O)O2)O1` [GIGANTECIN]: the EC50 in the data set on HT-29 turned out to be 0.268 mg/L (≈ 0.419 µM); in the data set with MCF7, 0.411 mg/L (≈ 0.643 µM). In the data set on A549, the ED50 was 2.19 ×10⁻⁷ ug/ml. Besides, in data set [1], the LC50 came out at 222 mg/L (≈ 347 µM).

The molecule `C=C(C)[C@H]1Cc2c(ccc3c2O[C@@H]2COc4cc(OC)c(OC)cc4[C@@H]2C3=O)O1` [ROTENONE] yielded an LC50 in the data set with Aedes aegypti of 0.75 mg/L (≈ 1.9 µM).

These data come from ChEMBL document CHEMBL1158858, “(2,4-cis and trans)-gigantecinone and 4-deoxygigantecin, bioactive nonadjacent bis-tetrahydrofuran annonaceous acetogenins, from Goniothalamus giganteus” (J Nat Prod, 1997).
